Experimental data as given in patent US8802597B2, “Herbicidal pyrimidines” (E I du Pont de Nemours and Company, priority 2003, dated 2014).

Experiments:
Format in all cases: in vivo
[1] = system: chickweed (Stellaria media); assay: Test C postemergence
Procedure, shortened: (§1)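 Pre: seeds planted, sprayed same day. Post: 1- to 4-leaf plants (2–18 cm). Formulation: non-phytotoxic solvent + surfactant. Greenhouse 12–14 d; visual % control vs untreated, 0–100.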

[2] = system: barnyardgrass (Echinochloa crus-galli); assay: Test A pre/postemergence
Procedure, shortened: (§2)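 Soil: loam blended with sand. Formulation: non-phytotoxic solvent mixture with surfactant. Timing: preemergence soil spray plus concurrent postemergence spray (plants 2–10 cm, 1–2 leaves). Readout: visual injury versus untreated controls at ~10 days, 0–100.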

[3] = system: crabgrass (Digitaria sanguinalis); assay: Test A pre/postemergence
Procedure, shortened: as §2

[4] = system: bermudagrass (Cynodon dactylon); assay: Test C pre/postemergence; conditions: for Plant response rating (scale of 0 to 100), Bermudagrass / Bermudagrass plant response rating: Postemergence; for Bermudagrass plant response rating: scale 0 to 100 (0 no effect, 100 complete control); for Plant response rating, Bermudagrass: Preemergence
Procedure, shortened: as §1

[5] = system: pigweed (Amaranthus retroflexus); assay: Test C pre/postemergence; conditions: for Plant response rating, Pigweed: Preemergence, scale 0 to 100, 0 no effect, 100 complete control
Procedure, shortened: as §1

[6] = system: common ragweed (Ambrosia elatior); assay: Test C pre/postemergence; conditions: for Plant response rating, Ragweed: Preemergence, scale 0 to 100, 0 no effect, 100 complete control
Procedure, shortened: as §1

[7] = system: yellow nutsedge (Cyperus esculentus); assay: Test C pre/postemergence; conditions: for Plant response rating, Nutsedge, Yellow: Preemergence, scale 0 to 100, 0 no effect, 100 complete control
Procedure, shortened: as §1

[8] = system: goosegrass (Eleusine indica); assay: Test C pre/postemergence; conditions: for Plant response rating, Goosegrass: Preemergence
Procedure, shortened: as §1

[9] = system: velvetleaf (Abutilon theophrasti); assay: Test C pre/postemergence; conditions: for Plant response rating, Velvetleaf: Preemergence, scale 0 to 100, 0 no effect, 100 complete control
Procedure, shortened: as §1

[10] = system: woolly cupgrass (Eriochloa villosa); assay: Test C pre/postemergence; conditions: for Plant response rating, Cupgrass, Woolly: Preemergence
Procedure, shortened: as §1

[11] = Postemergence, 125 g ai/ha, 0 to 100 scale (0 no effect, 100 complete control)
[12] = Postemergence, 500 g ai/ha, 0 to 100 scale (0 no effect, 100 complete control)
[13] = Preemergence, 125 g ai/ha, 0 to 100 scale where 0 is no effect and 100 is complete control, approximately ten days
[14] = Preemergence, 500 g ai/ha, 0 to 100 scale where 0 is no effect and 100 is complete control, approximately ten days
[15] = 16 g ai/ha, scale 0 to 100, 0 no effect, 100 complete control
[16] = 31 g ai/ha, scale 0 to 100, 0 no effect, 100 complete control
[17] = 62 g ai/ha, scale 0 to 100, 0 no effect, 100 complete control
[18] = Postemergence, 125 g ai/ha, scale 0 to 100 (0 no effect, 100 complete control)

Question: Which “Plant response rating (scale of 0 to 100), Chickweed” value ([1]; 16 g ai/ha) does the source give for `Nc1nc(-c2ccc(Cl)cc2)nc(C(=O)[O-])c1Cl.[Na+]` [Compound 117] here?
Answer: Its value is 30.

Question: And the “Plant response rating (scale of 0 to 100), Chickweed” value ([1]; 62 g ai/ha)?
Answer: Its value is 40.

Question: What about the “Plant response rating, Barnyardgrass” value [2, 11] of the same compound?
Answer: Its value is 85.

Question: What about the “Plant response rating, Barnyardgrass” value [2, 12] of the same compound?
Answer: The value was 90.

Question: And the “Plant response rating, Barnyardgrass” value [2, 13]?
Answer: Its value is 25.

Question: And the “Plant response rating, Barnyardgrass” value [2, 14]?
Answer: The value was 85.

Question: And the “Plant response rating, Crabgrass” value [3, 11]?
Answer: Its value is 75.

Question: And the “Plant response rating, Crabgrass” value [3, 12]?
Answer: Its value is 90.

Question: And the “Plant response rating, Crabgrass” value [3, 13]?
Answer: Its value is 45.

Question: And the “Plant response rating, Crabgrass” value [3, 14]?
Answer: Its value is 75.

Question: What about the “Plant response rating (scale of 0 to 100), Bermudagrass” value ([4]; 16 g ai/ha) of the same compound?
Answer: Its value is 60.

Question: And the “Plant response rating (scale of 0 to 100), Bermudagrass” value ([4]; 31 g ai/ha)?
Answer: Its value is 65.

Question: And the “Bermudagrass plant response rating” value ([4]; 62 g ai/ha)?
Answer: The value was 85.

Question: What about the “Bermudagrass plant response rating” value ([4]; 125 g ai/ha) of the same compound?
Answer: The value was 90.

Question: What about the “Plant response rating, Bermudagrass” value [4, 15] of the same compound?
Answer: Its value is 0.

Question: And the “Plant response rating, Bermudagrass” value [4, 16]?
Answer: The value was 0.

Question: What about the “Plant response rating, Bermudagrass” value [4, 17] of the same compound?
Answer: The value was 30.

Question: And the “Plant response rating, Bermudagrass” value ([4]; 125 g ai/ha, scale 0 to 100)?
Answer: The value was 65.

Question: What about the “Plant response rating (scale of 0 to 100), Pigweed” value ([5]; Postemergence, 16 g ai/ha) of the same compound?
Answer: Its value is 90.

Question: What about the “Plant response rating (scale of 0 to 100), Pigweed” value ([5]; Postemergence, 31 g ai/ha) of the same compound?
Answer: Its value is 95.

Question: And the “Plant response rating (scale of 0 to 100), Pigweed” value ([5]; Postemergence, 62 g ai/ha)?
Answer: Its value is 95.

Question: What about the “Pigweed plant response rating” value [5, 18] of the same compound?
Answer: The value was 95.

Question: And the “Plant response rating, Pigweed” value ([5]; 16 g ai/ha)?
Answer: Its value is 50.

Question: And the “Plant response rating, Pigweed” value ([5]; 31 g ai/ha)?
Answer: The value was 80.

Question: What about the “Plant response rating, Pigweed” value ([5]; 62 g ai/ha) of the same compound?
Answer: Its value is 90.

Question: And the “Plant response rating (scale of 0 to 100), Ragweed” value ([6]; Postemergence, 16 g ai/ha)?
Answer: The value was 95.

Question: And the “Plant response rating (scale of 0 to 100), Ragweed” value ([6]; Postemergence, 31 g ai/ha)?
Answer: The value was 95.

Question: What about the “Plant response rating (scale of 0 to 100), Ragweed” value ([6]; Postemergence, 62 g ai/ha) of the same compound?
Answer: Its value is 100.

Question: And the “Ragweed plant response rating” value [6, 18]?
Answer: The value was 100.

Question: What about the “Plant response rating, Ragweed” value ([6]; 16 g ai/ha) of the same compound?
Answer: Its value is 60.

Question: And the “Plant response rating, Ragweed” value ([6]; 31 g ai/ha)?
Answer: The value was 60.

Question: And the “Plant response rating, Ragweed” value ([6]; 62 g ai/ha)?
Answer: Its value is 90.

Question: What about the “Plant response rating (scale of 0 to 100), Nutsedge, Yellow” value ([7]; Postemergence, 16 g ai/ha) of the same compound?
Answer: Its value is 5.

Question: And the “Plant response rating (scale of 0 to 100), Nutsedge, Yellow” value ([7]; Postemergence, 31 g ai/ha)?
Answer: The value was 50.

Question: What about the “Plant response rating (scale of 0 to 100), Nutsedge, Yellow” value ([7]; Postemergence, 62 g ai/ha) of the same compound?
Answer: Its value is 50.

Question: And the “Nutsedge, Yellow plant response rating” value [7, 18]?
Answer: The value was 60.

Question: What about the “Plant response rating, Nutsedge, Yellow” value ([7]; 16 g ai/ha) of the same compound?
Answer: Its value is 0.

Question: And the “Plant response rating, Nutsedge, Yellow” value ([7]; 31 g ai/ha)?
Answer: The value was 0.

Question: And the “Plant response rating, Nutsedge, Yellow” value ([7]; 62 g ai/ha)?
Answer: Its value is 50.

Question: And the “Plant response rating (scale of 0 to 100), Goosegrass” value ([8]; Postemergence, 16 g ai/ha)?
Answer: The value was 40.

Question: And the “Plant response rating (scale of 0 to 100), Goosegrass” value ([8]; Postemergence, 31 g ai/ha)?
Answer: The value was 40.

Question: And the “Plant response rating (scale of 0 to 100), Goosegrass” value ([8]; Postemergence, 62 g ai/ha)?
Answer: The value was 75.

Question: What about the “Goosegrass plant response rating” value [8, 18] of the same compound?
Answer: Its value is 80.

Question: And the “Plant response rating, Goosegrass” value [8, 15]?
Answer: Its value is 0.

Question: And the “Plant response rating, Goosegrass” value [8, 16]?
Answer: Its value is 0.

Question: And the “Plant response rating, Goosegrass” value [8, 17]?
Answer: The value was 0.

Question: What about the “Plant response rating, Goosegrass” value ([8]; 125 g ai/ha, scale 0 to 100) of the same compound?
Answer: Its value is 30.

Question: And the “Plant response rating (scale of 0 to 100), Velvetleaf” value ([9]; Postemergence, 16 g ai/ha)?
Answer: The value was 60.

Question: What about the “Plant response rating (scale of 0 to 100), Velvetleaf” value ([9]; Postemergence, 31 g ai/ha) of the same compound?
Answer: The value was 70.

Question: What about the “Plant response rating (scale of 0 to 100), Velvetleaf” value ([9]; Postemergence, 62 g ai/ha) of the same compound?
Answer: The value was 95.

Question: And the “Velvetleaf plant response rating” value [9, 18]?
Answer: Its value is 95.

Question: What about the “Plant response rating, Velvetleaf” value ([9]; 16 g ai/ha) of the same compound?
Answer: The value was 0.

Question: And the “Plant response rating, Velvetleaf” value ([9]; 31 g ai/ha)?
Answer: Its value is 50.

Question: What about the “Plant response rating, Velvetleaf” value ([9]; 62 g ai/ha) of the same compound?
Answer: Its value is 65.

Question: What about the “Plant response rating (scale of 0 to 100), Cupgrass, Woolly” value ([10]; Postemergence, 16 g ai/ha) of the same compound?
Answer: Its value is 60.

Question: And the “Plant response rating (scale of 0 to 100), Cupgrass, Woolly” value ([10]; Postemergence, 31 g ai/ha)?
Answer: The value was 80.

Question: What about the “Plant response rating (scale of 0 to 100), Cupgrass, Woolly” value ([10]; Postemergence, 62 g ai/ha) of the same compound?
Answer: The value was 80.

Question: And the “Cupgrass, Woolly plant response rating” value [10, 18]?
Answer: Its value is 85.

Question: And the “Plant response rating, Cupgrass, Woolly” value [10, 15]?
Answer: Its value is 0.

Question: And the “Plant response rating, Cupgrass, Woolly” value [10, 16]?
Answer: Its value is 0.

Question: What about the “Plant response rating, Cupgrass, Woolly” value [10, 17] of the same compound?
Answer: Its value is 15.

Question: And the “Plant response rating, Cupgrass, Woolly” value ([10]; 125 g ai/ha, scale 0 to 100)?
Answer: The value was 50.
